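96-well plates; 48 h exposure; 5 concentrations. Endpoints by linear interpolation between flanking doses. Not reached: highest tested concentration assigned. At the GI50, growth is halved.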 Activity calls are given as the source filed them. No stated cut-off is given here; in the data, active = GI50 up to about 1.1 µM and inactive = higher.
Assays:
Test in all cases: DTP human tumour cell line panel, 48 h
OVCAR-4 = tested on: OVCAR-4
M14 = tested on: M14
NCI-H23 = tested on: NCI-H23
SF-295 = tested on: SF-295
MOLT-4 = tested on: MOLT-4
K562 = tested on: K562
M19-MEL = tested on: M19-MEL
SW-620 = tested on: SW-620
SN12C = tested on: SN12C
ACHN = tested on: ACHN
HCT-15 = tested on: HCT-15
UO-31 = tested on: UO-31
SNB-75 = tested on: SNB-75
SF-268 = tested on: SF-268
LOX IMVI = tested on: LOX IMVI
SK-MEL-2 = tested on: SK-MEL-2
PC-3 = tested on: PC-3
CAKI-1 = tested on: CAKI-1
TK-10 = tested on: TK-10
MDA-N = tested on: MDA-N

| Compound | GI50 (OVCAR-4) | GI50 (M14) | GI50 (NCI-H23) | GI50 (SF-295) | GI50 (MOLT-4) | GI50 (K562) | GI50 (M19-MEL) | GI50 (SW-620) | GI50 (SN12C) | GI50 (ACHN) | GI50 (HCT-15) | GI50 (UO-31) | GI50 (SNB-75) | GI50 (SF-268) | GI50 (LOX IMVI) | GI50 (SK-MEL-2) | GI50 (PC-3) | GI50 (CAKI-1) | GI50 (TK-10) | GI50 (MDA-N) |
| --- | --- | --- | --- | --- | --- | --- | --- | --- | --- | --- | --- | --- | --- | --- | --- | --- | --- | --- | --- | --- |
| O=C1C2ON3c4ccccc4C(=O)C3(c3ccccc3)C2C(=O)N1c1ccccc1 (stereo unspecified) | > 100 µM (inactive) | > 100 µM (inactive) | > 100 µM (inactive) | > 100 µM (inactive) | > 100 µM (inactive) | > 100 µM (inactive) | > 100 µM (inactive) | > 100 µM (inactive) | > 100 µM (inactive) | > 100 µM (inactive) | > 100 µM | > 100 µM (inactive) | > 100 µM (inactive) | > 100 µM (inactive) | – | – | – | – | – | – |
| CC[n+]1c(/C=C/c2cc(C(=O)OC)n3c2sc2ccccc23)sc2ccccc21 | 17.8 µM (inactive) | 18.8 µM (inactive) | – | – | 11.4 µM (inactive) | – | 18.9 µM (inactive) | – | 23.1 µM (inactive) | 19.1 µM (inactive) | 18.8 µM | 17.5 µM (inactive) | 15.7 µM (inactive) | 21.5 µM (inactive) | 17.5 µM (inactive) | 18.7 µM (inactive) | – | – | – | – |
| CCOC(=O)c1cc(-c2ccn(C(C)=O)c2)c(-c2cc(C)co2)[nH]1 | > 100 µM (inactive) | > 100 µM (inactive) | > 100 µM (inactive) | > 100 µM (inactive) | > 100 µM (inactive) | > 100 µM (inactive) | – | > 100 µM (inactive) | > 100 µM (inactive) | > 100 µM (inactive) | > 100 µM | > 100 µM (inactive) | > 100 µM (inactive) | > 100 µM (inactive) | > 100 µM (inactive) | > 100 µM (inactive) | > 100 µM (inactive) | > 100 µM (inactive) | > 100 µM (inactive) | > 100 µM (inactive) |
| CC1CC(C)C2=NOS3=C2C1=NO3 (stereo unspecified) | > 100 µM (inactive) | > 100 µM (inactive) | > 100 µM (inactive) | > 100 µM (inactive) | 89.9 µM (inactive) | 53.8 µM (inactive) | – | > 100 µM (inactive) | > 100 µM (inactive) | > 100 µM (inactive) | > 100 µM | > 100 µM (inactive) | 59.8 µM (inactive) | > 100 µM (inactive) | > 100 µM (inactive) | > 100 µM (inactive) | > 100 µM (inactive) | > 100 µM (inactive) | > 100 µM (inactive) | > 100 µM (inactive) |
| O=C(NNS(=O)(=O)c1ccccc1)c1csc(NC(=S)NC2CCCCC2)n1 | 34.6 µM (inactive) | 39.2 µM (inactive) | 48 µM (inactive) | 32.1 µM (inactive) | 36.5 µM (inactive) | 56.6 µM (inactive) | – | 25 µM (inactive) | 20.8 µM (inactive) | 33.5 µM (inactive) | 41.6 µM | 23.9 µM (inactive) | 32.8 µM (inactive) | 22 µM (inactive) | 17.1 µM (inactive) | 22.3 µM (inactive) | 34.2 µM (inactive) | 28.4 µM (inactive) | 35.6 µM (inactive) | 18.5 µM (inactive) |
| COc1ccc(NC(=O)CC(=O)NNC(Sc2ccccc2)c2cc(/N=N/c3ccc(Br)cc3)ccc2O)cc1 (stereo unspecified) | 9.12 µM (inactive) | > 10 µM (inactive) | > 10 µM (inactive) | > 10 µM (inactive) | 3.86 µM (inactive) | > 10 µM (inactive) | – | > 10 µM (inactive) | 7.52 µM (inactive) | > 10 µM (inactive) | > 10 µM | > 10 µM (inactive) | 5.52 µM (inactive) | > 10 µM (inactive) | > 10 µM (inactive) | > 10 µM (inactive) | > 10 µM (inactive) | > 10 µM (inactive) | > 10 µM (inactive) | > 10 µM (inactive) |
| COc1ccc(OCC(=O)O)c2c1CCC(C)C2=O (stereo unspecified) | > 100 µM (inactive) | > 100 µM (inactive) | – | > 100 µM (inactive) | > 100 µM (inactive) | > 100 µM (inactive) | > 100 µM (inactive) | > 100 µM (inactive) | > 100 µM (inactive) | > 100 µM (inactive) | > 100 µM | > 100 µM (inactive) | – | > 100 µM (inactive) | > 100 µM (inactive) | > 100 µM (inactive) | – | > 100 µM (inactive) | > 100 µM (inactive) | – |
| CCOC(=O)C(=O)Nc1c(N(CC)CC)n2ccccc2nc1=O | – | > 100 µM (inactive) | > 100 µM (inactive) | – | > 100 µM (inactive) | > 100 µM (inactive) | > 100 µM (inactive) | > 100 µM (inactive) | > 100 µM (inactive) | > 100 µM (inactive) | > 100 µM | > 100 µM (inactive) | > 100 µM (inactive) | > 100 µM (inactive) | – | > 100 µM (inactive) | – | > 100 µM (inactive) | – | – |
| CCCCCC1=CC(=O)C1(Cl)Cl | 15.9 µM (inactive) | 18.4 µM (inactive) | 14.3 µM (inactive) | 18.9 µM (inactive) | 3.67 µM (inactive) | 4.68 µM (inactive) | – | 11.9 µM (inactive) | 20.3 µM (inactive) | 8.3 µM (inactive) | 12.6 µM | 15.4 µM (inactive) | 11.1 µM (inactive) | 14.7 µM (inactive) | 6.52 µM (inactive) | 20.4 µM (inactive) | 14.5 µM (inactive) | 8.3 µM (inactive) | 5.81 µM (inactive) | 10.5 µM (inactive) |
| CC(=O)OCC1OC(Sc2ccccn2)C=CC1OC(C)=O (stereo unspecified) | > 100 µM (inactive) | > 100 µM (inactive) | > 100 µM (inactive) | > 100 µM (inactive) | > 100 µM (inactive) | > 100 µM (inactive) | > 100 µM (inactive) | > 100 µM (inactive) | > 100 µM (inactive) | > 100 µM (inactive) | – | > 100 µM (inactive) | > 100 µM (inactive) | > 100 µM (inactive) | > 100 µM (inactive) | – | – | – | > 100 µM (inactive) | – |
| Brc1ccc(N2C[N+](c3ccc(Br)cc3)=NC(c3ccccc3)=N2)cc1.[O-][Cl+3]([O-])([O-])[O-] | > 100 µM (inactive) | 58.3 µM (inactive) | 46.9 µM (inactive) | 29.4 µM (inactive) | 43 µM (inactive) | 31.3 µM (inactive) | > 100 µM (inactive) | > 100 µM (inactive) | > 100 µM (inactive) | 50.2 µM (inactive) | > 100 µM | > 100 µM (inactive) | > 100 µM (inactive) | 99.3 µM (inactive) | – | 46.6 µM (inactive) | – | > 100 µM (inactive) | > 100 µM (inactive) | – |
| O=c1oc2ccccc2cc1-c1csc(Nc2ccc(F)cc2)n1 | 7.31 µM (inactive) | 4.25 µM (inactive) | 2.9 µM (inactive) | 3.62 µM (inactive) | 5.18 µM (inactive) | 2.56 µM (inactive) | – | 5 µM (inactive) | 3.01 µM (inactive) | 8.55 µM (inactive) | 2.86 µM | 2.33 µM (inactive) | 2.07 µM (inactive) | 3.15 µM (inactive) | 4.7 µM (inactive) | 14.8 µM (inactive) | 5.43 µM (inactive) | 2.94 µM (inactive) | 2.98 µM (inactive) | 4.66 µM (inactive) |
| Cc1cc(N)c(C)c2c1[nH]c1ccc(O)cc12 | > 100 µM (inactive) | > 100 µM (inactive) | > 100 µM (inactive) | > 100 µM (inactive) | 32.4 µM (inactive) | 35 µM (inactive) | 61 µM (inactive) | 39.1 µM (inactive) | > 100 µM (inactive) | > 100 µM (inactive) | > 100 µM | > 100 µM (inactive) | – | > 100 µM (inactive) | > 100 µM (inactive) | > 100 µM (inactive) | – | > 100 µM (inactive) | 66.8 µM (inactive) | – |
| COc1ccc2c(c1)c(CC(=O)O)c(C)n2C(=O)c1ccc(Cl)cc1 | > 100 µM (inactive) | > 100 µM (inactive) | 57 µM (inactive) | > 100 µM (inactive) | > 100 µM (inactive) | 13.7 µM (inactive) | – | > 100 µM (inactive) | > 100 µM (inactive) | > 100 µM (inactive) | > 100 µM | 41.8 µM (inactive) | 39.9 µM (inactive) | > 100 µM (inactive) | > 100 µM (inactive) | 60.3 µM (inactive) | 39 µM (inactive) | 29.6 µM (inactive) | 36.6 µM (inactive) | > 100 µM (inactive) |
| CC(=O)Oc1ccc(/C=C/C(=O)OCCOC(=O)/C=C/c2ccc(OC(C)=O)c(OC(C)=O)c2)cc1OC(C)=O | 4.63 µM (inactive) | 10.8 µM (inactive) | 4.26 µM (inactive) | 8.97 µM (inactive) | 5.61 µM (inactive) | 4.89 µM (inactive) | – | 9.38 µM (inactive) | 11.7 µM (inactive) | 4.05 µM (inactive) | 4.75 µM | 4.01 µM (inactive) | 4.23 µM (inactive) | 8.43 µM (inactive) | 4.59 µM (inactive) | 17.5 µM (inactive) | 12.1 µM (inactive) | 3.26 µM (inactive) | 10.2 µM (inactive) | 7.14 µM (inactive) |
| O=C(O)c1cc2ccccc2oc1=O [COUMARIN-3-CARBOXYLIC ACID] | > 100 µM (inactive) | > 100 µM (inactive) | > 100 µM (inactive) | > 100 µM (inactive) | > 100 µM (inactive) | > 100 µM (inactive) | – | > 100 µM (inactive) | > 100 µM (inactive) | > 100 µM (inactive) | > 100 µM | > 100 µM (inactive) | > 100 µM (inactive) | > 100 µM (inactive) | > 100 µM (inactive) | > 100 µM (inactive) | > 100 µM (inactive) | > 100 µM (inactive) | > 100 µM (inactive) | > 100 µM (inactive) |

From ChEMBL document CHEMBL1201862, “PubChem BioAssay data set” (2004)
